# Results reported in a melting point compilation (Tetko et al.; mined from patent text by program, amines drawn as free bases though some values may be those of a salt).
row,melting point [°C],SMILES
1,146 to 148,COc1cccc(Oc2cccc(Oc3ccc4c(c3)OCO4)c2C(=O)O)c1
2,123 to 125,O=P1(C2CCCC2)c2ccccc2CN1c1ccccc1 (stereo not given)
3,> 310,COc1ccc2nc3ccc(C(N)=O)cn3c(=O)c2c1
4,182,CCOc1nc2ccccc2nc1C(=O)Nc1ccc(OCCCCN2CCc3cc(OC)c(OC)cc3C2)cc1
5,157 to 160,CN1CCN(c2nc(-c3ccc(Cl)cc3)c(CCC(=O)O)o2)CC1
6,276 to 277,Cc1ccc(C(=S)Oc2ccc(C(=O)O)cc2)cc1C12CC3CC(CC(C3)C1)C2
7,164 to 167,CS(=O)(=O)Cc1ccc(Oc2cc(OC3CCOCC3)c3[nH]c(C4=NCC(CC(N)=O)S4)cc3c2)cn1 (stereo not given)
8,191 to 193,Cc1nc(NC(=O)c2ccccc2)sc1C(=O)NCc1ccccc1Cl
9,107 to 108,O=C(N[C@H]1CCN(CCc2ccc(F)cc2)C1)C(c1ccccc1F)c1ccccc1F
10,255 to 256,NS(=O)(=O)c1cc(C(=O)O)cc([N+](=O)[O-])c1Oc1ccccc1
11,181 to 183,O=C1NCCC[C@@H]1NS(=O)(=O)c1ccc(C(F)(F)F)cc1
12,151 to 152,COc1ccc(CC(=O)Nc2cc(Cl)ccc2O)cc1OC1CCCC1
13,176 to 178,COc1ccc(-c2c(-c3ccccc3)nc3n2CCS3)cc1OC
14,> 260,O=C(O)c1cnc(N2CCC(NS(=O)(=O)c3ccc4ccccc4c3)CC2)nc1
15,162 to 163,O=C1c2cc3nnn(CC4(c5cccc(F)c5)CC4)c(=O)c3cc2OC2CCCN12 (stereo not given)
16,113 to 115,Cn1c2c(ccc1=O)C(NCCc1ccc3ccccc3c1)CCC2 (stereo not given)
17,114 to 115,CCOC(=O)CCCNC(=O)c1nn(C2CCCCO2)cc1NC(=O)c1ccccn1 (stereo not given)
18,96 to 103,CCOC(=O)c1c(N(C)C)c2cc(C)ccc2n(Cc2ccccc2)c1=O
19,282 to 285,NS(=O)(=O)c1cc(C(=O)O)cc(N2CCCC2=O)c1Oc1ccccc1
20,236 to 238,O=C(O)c1ccc(COCc2csc3nc(C(=O)NCc4cccc(Cl)c4)[nH]c(=O)c23)cc1
21,240,NS(=O)(=O)c1cccc(-c2cc(-c3nc(-c4ccc(F)cc4)cc(C(F)(F)F)n3)ccn2)c1

# Second part, the compound before the results:
row,SMILES,melting point [°C]
1,CCCc1c(C(=O)O)cnc(C(F)(F)F)c1C(=O)O,236
2,COc1cc(O)c2c(=O)cc(C(=O)Nc3ccc(CC4SC(=O)NC4=O)cc3)oc2c1 (stereo not given),255 to 256
3,Cc1oc(C=Cc2ccccc2Cl)nc1CC#N,89 to 90
4,COc1ccc2c(c1OC)CCC1=C2CCC(=O)N1,231
5,FC(F)(F)c1cc(-c2nnn[nH]2)cc(C(F)(F)F)c1,179
6,CCCCCCCCCCCCCCCCS(=O)(=O)NCCc1ccc(OCC(=O)O)cc1,138
7,CN1CS(=O)c2cccc(Cl)c21 (stereo not given),130 to 132
8,COc1cc2c(cc1OC)C(=O)C(N1CCC(n3c(=O)[nH]c4ccccc43)CC1)CC2 (stereo not given),238 to 239
9,Brc1ccc(C(Br)Br)nc1,59 to 61
10,O=C(OCCC1CCCCC1)c1ncn2c1[C@@H]1CCCN1C(=O)c1c(Cl)cccc1-2,131 to 132
11,COC(=O)Nc1c(Cl)ccc(Br)c1F,107 to 112
12,COc1ccc(-c2nc(-c3cccs3)c[nH]2)cc1Br,84 to 87
13,Oc1ccc(C(=Cc2ccccc2)c2ccc(O)c(O)c2O)c(O)c1O,142 to 143
14,Cc1c(CO)ncn1C,161 to 163
15,CSc1cc(Oc2cccc(C(F)(F)F)c2)nc(C(=O)NN)c1,149 to 151
16,CSc1ncc(N(C)C(=O)C(C)(C)c2cc(C(F)(F)F)cc(C(F)(F)F)c2)c(-c2ccccc2C)n1,124 to 125
17,C=CCC(O)(Cn1cncn1)c1ccc(Cl)cc1Cl (stereo not given),101
18,O=C1CC2CCCCC2=NN1c1ccc(Cl)cc1F (stereo not given),110 to 112
19,O=C(NCCOCCO[N+](=O)[O-])c1cncs1,63 to 65
